# Results reported in patent US20240158359A1, “HYDROLYSIS-RESISTANT ESTERS FOR DRUG AND IMAGING AGENT DELIVERY” (The Board of Trustees of the University of lllinois, priority 2022, published 2024).
# Key:
# A549 cells = test: MTT assay using MTX-Me2 and MTX-(PhiPr)2; type: cell-based; details: highest concentration (10 μM), 24 hours
# Method: Next, we modified the two carboxylates in methotrexate (a potent anticancer and immunosuppressive drug) to afford the methyl (MTX-Me2) or Ph^iPr (MTX-(Ph^iPr)2) ester variants (FIG. 2b). A549 cells were cultured and treated with MTX-Me2 or MTX-(Ph^iPr)2 at various concentrations for 24 hours before they were subjected to MTT analyses. […] Statistical analysis for FIG. 3b, FIG. 3c and FIG. 3d was performed using a two-tailed t-test (α=0.05, **** P<0.001)
# 48-well plates were seeded with 30,000 A549 cells per well (500 μL of 60,000 cells/mL) and incubated at 37° C. with 5% CO2 for 24 hours. Media was removed and fresh serum-free RPMI 1640 containing […] of MTX-Me2 or MTX-(PriPr)2 were added (0.1% DMSO final v/v). The media was removed after 24 hours incubation and replaced with 500 μL of a 20:1 mixture of serum-free RPMI 1640 and (3-(4,5-dimethylthiazol2-yl)-2,5-diphenyl-tetrazolium bromide (MTT, 5 mg/mL stock in PBS). The cells were incubated for 2 hours under the same condition and then the medium was removed and replaced with DMSO (500 μL/well). The absorbance of each well was recorded at 555 nm on a microplate reader. Viability was calculated by the absorbance relative to the vehicle control.
# 4T1-Luc cells = test: Ester stability in live 4T1-Luc cells, BL imaging; type: cell-based, murine; details: 10 μM
# Method: First, we prepared BL660-Me, a methyl ester derivative of BL660 as shown in FIG. 2a for comparison to the benzyl ester (4) of FIG. 1a. Next, we cultured 4T1 murine breast cancer cells, stably expressing the luciferase enzyme (4T1-Luc). The cells were then treated with a DMSO (dimethyl sulfoxide) vehicle control, BL660-Me or Compound (4) (FIG. 3a and FIG. 10a, b, c respectively?). Imaging was performed using the IVIS In Vivo Imaging System.
# 4T1-Luc cell was cultured in phenol red-free RPMI 1640 (ATCC) with 10% fetal bovine serum (FBS, Sigma Aldrich), and 1% penicillin/streptomycin (Corning).
# Evaluation of BL660-Me and 4 in 4T1-Luc Cells. 4T1-Luc cells (180K) were seeded into 24-well plates and incubated for 24 hours. The cells were ˜85% confluent. The media was removed and replaced with serum-free RPMI 1640. An initial background scan was recorded on an IVIS imaging system in open mode where no filters were applied. Cells were then treated with DMSO (2.5 μL, 0.5%), BL660-Me, or compound 4 in DMSO (10 μM final concentration). After 30 minutes incubation at 37° C., bioluminescence was collected. ROIs were drawn around each well. The total luminescence count for each well for a given condition was averaged. The signal intensity was quantified using the Living Image Analysis Software.
# porcine liver esterase = test: Esterase reactivity: treatment with porcine liver esterase, BL readout; type: in vitro ADME; details: 10 μM, porcine liver esterase 0.1 units/mL, 37° C., pH 7.4, 20, 40 and 60 minutes
# Excerpt: The enzymatic rates, reported as total luminescence counts per minute, in descending order are: Compound (1) (31.0±6.8×10^2), (3) (9.5±1.2×10^2), and (2) (0.6±0.1×10^2) (FIG. 1c and FIG. 9). The greater stability imparted by the aromatic ring is not surprising since esterase reactivity can be readily attenuated with bulkier substituents.
# [1] = Hydrolytic stability of BL660 esters in PBS, luciferase BL readout; type: physicochemical; details: for rate of hydrolysis: 10 μM, PBS pH 7.4, 37° C., 1, 6 and 12 hours
# Method: We began our analysis of stability by incubating BL660 esters of Compound (1), Compound (2), and Compound (3) at 37° C. in PBS (phosphate-buffered saline) (pH 7.4). After 1, 6, and 12 hours, luciferase was added (10mU, 37° C., pH 7.4) to initiate BL production. The rate of hydrolysis, reported as total luminescence counts per hour, indicates hydrolysis in descending order is: Compound (1) (13.9±1.4×10^3); Compound (2) (3.3±0.6×10^3), and Compound (3) (1.0±0.1×10^3) (FIG. 1b, wherein the esters are indicated on the horizontal axis) and FIG. 8 (wherein the respective timeline plots are identified beneath the horizontal axis as (1), (2), etc.). Luminescent counts were recorded using an IVIS In Vivo Imaging System. […] Without wishing to be bound by any theory, we speculate hydrolysis of (3) may involve an SN1 mechanism, thus favoring formation of a double benzylic carbocation.
SMILES,viability (A549 cells) [%],enzymatic rate (porcine liver esterase),rate of hydrolysis [1],also measured
CC(C)C(OC(=O)CCC(NC(=O)c1ccc(N(C)Cc2cnc3nc(N)nc(N)c3n2)cc1)C(=O)OC(c1ccccc1)C(C)C)c1ccccc1 (mixture of isomers) [MTX-(Ph^iPr)2],100,,,
CCN(CC)c1ccc(C=CC=CC2=NC(C(=O)OC)CS2)cc1 (stereo not drawn) [BL660-Me],,,,luminescence relative to Compound (4) (4T1-Luc cells; 30 mins): 31 fold; luminescence relative to the vehicle (4T1-Luc cells; 30 mins): 55 fold; total luminescence count (4T1-Luc cells; 30 mins at 37° C.): 94.1±5.9×10^3 total luminescence count
CCN(CC)c1ccc(C=CC=CC2=NC(C(=O)OCc3ccccc3)CS2)cc1 (stereo not drawn) [Compound (1)],,31.0±6.8×10^2 total luminescence counts per minute,13.9±1.4×10^3 total luminescence counts per hour,
CCN(CC)c1ccc(C=CC=CC2=NC(C(=O)OC(c3ccccc3)c3ccccc3)CS2)cc1 (stereo not drawn) [Compound (2)],,0.6±0.1×10^2 total luminescence counts per minute,3.3±0.6×10^3 total luminescence counts per hour,
CCN(CC)c1ccc(C=CC=CC2=NC(C(=O)OC(C)c3ccccc3)CS2)cc1 (stereo not drawn) [Compound (3)],,9.5±1.2×10^2 total luminescence counts per minute,1.0±0.1×10^3 total luminescence counts per hour,"effectiveness at blocking hydrolysis, methyl substituent of (3) versus phenyl group of (2) ([1]; PBS pH 7.4, 37° C.): over three-fold more effective at blocking hydrolysis"
"COC(=O)CCC(NC(=O)c1ccc(N(C)Cc2cnc3nc(N)nc(N)c3n2)cc1)C(=O)OC (stereo not drawn) [MTX-Me2, reference compound]",~63,,,
